Data on ten compounds can be found in US5780242A, “Bioassay for the screening of ION channel active molecules” (priority 1995, dated 1998).

“Also recorded” adds a separate entry of the source. Where a name gives a salt, the structure may show the parent alone. Read-outs that look alike come from different tables or passages of the source.

The test system of data set [1] is AChE preparation (sodium channel neuroreceptor). Put plainly: Circular dichroism bioassay at 222 nm: temperature-dependent helix-coil transition of the AChE/neuroreceptor preparation in presence of drug. It is filed as binding, bovine. Particulars: for molar ellipticity [θ] at 222 nm, 30° C. / molar ellipticity [θ] at 222 nm, 35° C. / molar ellipticity [θ] at 222 nm, 38° C. / stabilization of the alpha helix / prevention of the helical transition between 30° C. and 35° C.: pH 7.0; for temperature needed to elicit the helix-coil transition in presence of drug: versus preparation without drug; for stabilization of the alpha helix / prevention of the helical transition between 30° C. and 35° C.: fresh preparations. As to the method: (§1) A baseline of the solution is obtained using 222 nm without removing the cell after a run is begun to allow for thermal stabilization. Prior to adding the drug to the enzyme, a blank run consisting only of the drug at the same concentration used in the enzyme study is made. To obtain control data, temperature changes of 5 degrees centigrade in the neuroreceptor solution alone are made using a Forma water bath. Then the drug is added to a sample of the purified neuroreceptor solution, and the stabilizing effect of the drug on the temperature-related conformational changes is noted. All temperature runs are allowed to equilibrate for one hour before data is collected.
All studies are made in 1 mm, 5 mm and 2 mm cells using a Jouan Dichrograph II at 1×10^-5 O.D./mm sensitivity. The sample solution consists of 30 mM Na2 HPO4, pH 7.0, and the enzyme. Protein concentration is determined empirically and then measured by the Lowry method after the run. Lowry, et al., J Biol Chem, 193: 265-275 (1951). Samples are taken directly from G-200 fractions or DEAE-Cellulose fractions previously dialyzed against 30 mM Na2 HPO4, pH 7.0.
Thermal studies are carried out in the 10 mm cell. Care must be taken not to misplace the cell in the cell holder to avoid spectral changes. Additionally, since the absorption is affected by pressure, the ORD cell's glass stopper must be gently seated. for the thermal runs of Prep A, a micro-thermometer is used to record the temperature in the ORD cell after each spectral recording.
The routine consists of beginning a CD spectral scan followed by running each activity blank at that temperature using 3 minute reading intervals. The next CD spectral scan is made after recording the temperature in the ORD cell. The data recorded consists of duplicates of CD spectra with cell temperatures varying 5 degrees centigrade at 222 nm.
Pilocarpine, reagent grade, was used at 1.33×10^-6 M in the sample solutions.
A buffer solution of 20 mM Na2 HPO4, pH 7.0, gives minimal absorption problems in the range 300 nm to 195 nm. Enzyme solutions contain from 21 μg/ml to 31 μ/ml of protein in buffer. Total ORD cell volume is 3.0 ml.
A buffer solution of 30 Na2 HPO4, pH 7.0,gave minimal absorption problems in the range 300 nm to 195 nm. Enzyme solutions contained from 21 μg/ml to 31 μg/ml of protein in buffer. Total ORD cell volume was 3.0 ml. Drugs were added to ORD cells in 0.002 ml volumes in order to minimize dilution effects. A Roussel-Jouan Dichrograph 11 sensitive to 1×10^-5 dichroic absorption unit per recording mm was used with a 10 mm, strain free, quartz ORD cell (Pyrocell, New Jersey, U.S.A.).
(§2) Again CD spectra were obtained using the above thermal apparatus over the range of 230 nm to 215 nm. A baseline of the enzyme solution was obtained using 300 nm to 285 nm without removing the cell after a run was begun. Prior to adding the drug to the enzyme, a blank run consisting only of the drug at the same concentration used in the enzyme study was made. To obtain control data, temperature changes in the enzyme solution alone were made using a Forma water bath. Then the drug was added to another enzyme solution with the same protein concentration which came from the stock solution, and temperature effects were noted. All temperature runs were allowed to equilibrate for one hour before data were collected.
Data for CD was expressed so that experimental values could be compared with published helix composition values. All graphs and raw data were expressed as molar el lipticity [.THETA.] based on mean residue molecular weight because the true molecular weight of AChE has not been established for the brain enzyme.
Background: Circular dichroism is the unequal absorption of left and right circularly polarised light.

For data set [2] the following is noted: local anesthesia; cited from earlier work.
The conditions of data set [3]: cited from earlier work.
A short description of data set [4]: Circular dichroism blank run of the drug alone. It counts as physicochemical. Particulars: for ellipticity of drug alone: 215 nm to 230 nm / 222 nm; for molar ellipticity [θ] of drug alone, 30° C.: no enzyme, 222 nm. As to the method: as §1, §2
Another data set concerns the target AChE (Bos taurus, UniProt P23795). The experiment in a line: Salt study: effect of MgSO4 on AChE of Prep E (AChE activity and CD helix). It counts as biochemical, bovine. As for the experimental part:
An AChE preparation (Prep E) was made using the scheme of S. L. Chan, supra "Purification of Beef Brain Acetylcholinesterase" Proceedings of the Western Pharmacology Society, 13:43-47, 1970. The AChE in 0.4M NaCl/[…] Na2 HPO4 was lyophilized and resuspended in 2.5 ml deionized water. The CD spectrum was made, and activity was checked qualitatively. The sample was dialyzed against 100 mM MgSO4 for 12 hours. AChE activity was qualitatively checked with CD. The sample was then redialyzed against 0.4M NaCl/30 mM Na2 HPO4 for 12 hours, checked for AChE activity and for CD absorption.
Activity of AChE was determined at 25° C.-30° C. and pH 8.0 by the spectrophotometric method of Ellman et al (Biochemical Pharmacology, 7:88-95 (1961). Measurements were made in the Hitachi Perkin-Elmer Model 139 spectrophotometer at 412 nm and 0.1 nm slit. One unit of AChE activity was defined as 1 μM of ATC (acetyl thiocholine iodide,Sigma) hydrolyzed per hour at 25° C. Specific activity is expressed as μmoles ATC hydrolyzed/ mg protein/ hour.

The conditions of data set [5]: rats; cited from earlier work.
For data set [6] the following is noted: mice; cited from earlier work.
Setting [7] is: 7 Day old AChE with drug, 222 nm.
Setting [8] is: AChE Prep B (7 Days Later) plus drug 1.33×10^-6 M, 222 nm.
Setting [9] is: AChE Prep B (7 Days Later) plus drug 1.33×10^-6 M.
Setting [10] is: AChE Prep B (7 Days Later), 222 nm.
Where [11] appears, read: Fresh AChE (Prep C) plus drug 1.33×10^-6 M, 222 nm.
The mark [12] stands for this setting: Fresh AChE (Prep C) plus drug 1.33×10^-6 M.
The mark [13] stands for this setting: Fresh AChE (Prep B) plus drug 1.33×10^-6 M.

Sequence of AChE (P23795 31-613): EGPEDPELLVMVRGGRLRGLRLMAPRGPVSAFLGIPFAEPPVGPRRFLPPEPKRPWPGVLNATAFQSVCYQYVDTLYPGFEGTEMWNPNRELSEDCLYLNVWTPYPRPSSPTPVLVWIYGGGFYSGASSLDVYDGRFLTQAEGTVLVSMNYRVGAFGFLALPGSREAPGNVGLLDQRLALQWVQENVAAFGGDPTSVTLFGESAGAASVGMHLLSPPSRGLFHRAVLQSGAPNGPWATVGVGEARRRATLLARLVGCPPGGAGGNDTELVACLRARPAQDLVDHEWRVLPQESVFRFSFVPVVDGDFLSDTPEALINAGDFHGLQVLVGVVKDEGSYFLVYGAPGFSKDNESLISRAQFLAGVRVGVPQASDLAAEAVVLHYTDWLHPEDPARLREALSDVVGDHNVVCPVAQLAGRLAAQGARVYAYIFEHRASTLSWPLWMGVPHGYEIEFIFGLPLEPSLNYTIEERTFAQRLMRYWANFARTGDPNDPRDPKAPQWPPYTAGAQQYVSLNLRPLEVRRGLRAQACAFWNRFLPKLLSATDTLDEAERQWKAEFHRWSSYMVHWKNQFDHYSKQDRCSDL

Consider `CCN(CC)CC(=O)Nc1c(C)cccc1C` [Lidocaine, Lidocaine hydrochloride monohydrate], for which the “% Loss of Helix (30° C. to 35° C.)” value in data set [1] (setting [7]) amounted to 16.8%. In addition, in data set [1] (setting [8]), the “[θ]30 - [θ]35” value is 600. The “molar ellipticity [θ] at 222 nm, 30° C.” value in data set [1] (setting [9]) is -3,590. Moreover, in data set [1] (setting [10]), the “Difference of Lidocaine from Above AChE, 30° C.” value is given as “+540” and the “Difference of Lidocaine from Above AChE, 35° C.” value is given as “+480”. Also, in data set [1] (setting [11]), the “[θ]30 - [θ]35” value turned out to be 100 and the “[θ]38 - [θ]35” value worked out at 770. Besides, in data set [1] (setting [12]), the “molar ellipticity [θ] at 222 nm, 30° C.” value is recorded as -5,560; the “molar ellipticity [θ] at 222 nm, 35° C.” value was -5,500; the “molar ellipticity [θ] at 222 nm, 38° C.” value is on record as -4,830. Moreover, in data set [1] (Fresh AChE with drug, 222 nm), the “% Loss of Helix (30° C. to 35° C.)” value is recorded as 1.8% and the “% Loss of Helix (35° C. to 40° C.)” value is on record as 13.6%. Moreover, the “temperature needed to elicit the helix-coil transition in presence of drug” value in data set [1] was “Higher temperatures were necessary”. Also, the “duration of effective action” value in data set [2] is 1 to 2 h. Besides, the allergic reactions result in data set [3] (compared with procaine) is on record as “fewer known allergic reactions than procaine”. The side effect result in data set [3] (in vivo) is listed as “drowsiness”. Besides, the “ellipticity of drug alone” value in data set [4] is reported as “no ellipticity”.
In the case of `O=S(=O)([O-])[O-].[Mg+2]` [MgSO4], the “random coil at 195 nm” value on AChE (AChE Prep E in 100 mM MgSO4, CD) is listed as 35%. Also, at AChE (Prep E dialyzed against 100 mM MgSO4 for 12 hours), the “AChE Qualitative Activity” value turned out to be 0. Moreover, the “Helix 220 nm” value on AChE (Prep E dialyzed against 100 mM MgSO4 for 12 hours, CD) turned out to be 16 mm.
For `CN1CCCC1c1cccnc1` (stereo not drawn) [Nicotine], the “molar ellipticity [θ] of drug alone, 30° C.” value in data set [4] is -21,400.
As for `CC[C@@H]1C(=O)OC[C@@H]1Cc1cncn1C` [Pilocarpine], the “% Loss of Helix (30° C. to 35° C.)” value is listed as 20.7% in data set [1] (setting [7]) and 7.1% in data set [1] (Fresh AChE with drug, 222 nm). The “[θ]30 - [θ]35” value in data set [1] (setting [8]) was found to be 720; in data set [1] (Fresh AChE (Prep B) plus drug 1.33×10^-6 M, 222 nm) it was 800; in data set [1] (setting [11]), 170. For the same compound, the “molar ellipticity [θ] at 222 nm, 30° C.” value in data set [1] (setting [9]) was -3,590; in data set [1] (setting [13]) it was -11,300; in data set [1] (setting [12]), -4,490. The “molar ellipticity [θ] at 222 nm, 35° C.” value in data set [1] (setting [9]) is listed as -2,280; in data set [1] (setting [13]), -10,500; in data set [1] (setting [12]), -4,320. Further, in data set [1] (setting [11]), the “[θ]38 - [θ]35” value is recorded as 780. Moreover, the “molar ellipticity [θ] at 222 nm, 38° C.” value in data set [1] (setting [12]) is -3,540. In addition, the “% Loss of Helix (35° C. to 40° C.)” value in data set [1] (Fresh AChE with drug, 222 nm) amounted to 17.5%. Further, the “stabilization of helix in preparations not freshly prepared” value in data set [1] (enzyme preparations more than one week old / not freshly prepared) is recorded as “not observed; also recorded: will not be protected”. The “stabilization of the alpha helix / prevention of the helical transition between 30° C. and 35° C.” value in data set [1] (222 nm) is “appear to stabilize the helix”; in data set [1] (222 nm, listed as pilocarpine) it was “prevent the helical transition”. Further, in data set [1], the “temperature needed to elicit the helix-coil transition in presence of drug” value is recorded as “Higher temperatures were necessary”. Also, the “ellipticity of drug alone” value in data set [4] was “positive ellipticity”. Besides, the “molar ellipticity [θ] of drug alone, 30° C.” value in data set [4] was “+5,450”.
On to `CCCCN1CCCCC1C(=O)Nc1c(C)cccc1C` (stereo not drawn) [bupivacaine], for which, in data set [2], the “duration of effective action” value is 4 to 18 h.
In the case of `CCCN(CC)C(CC)C(=O)Nc1c(C)cccc1C` (stereo not drawn) [etidocaine], the “duration of effective action” value in data set [2] is 4 to 18 h.
As to `Cc1cccc(C)c1NC(=O)C1CCCCN1C` (stereo not drawn) [mepivacaine], in data set [2], the “duration of effective action” value was 2 to 3 h and the onset of action result is given as “rapid”.
For `Cc1ccccc1N` [ortho-toliudine], the carcinogenicity entry in data set [5] and in data set [6] was “carcinogenic” each time.
For `CCCNC(C)C(=O)Nc1ccccc1C` (stereo not drawn) [prilocaine], the “duration of effective action” value in data set [2] is 2 to 3 h. For the same compound, the side effect entry is “methemoglobinemia” in data set [3] (doses greater than 400 mg) and “drowsiness” in data set [3] (in vivo).
Take `CCN(CC)CCOC(=O)c1ccc(N)cc1` [procaine]: the “duration of effective action” value in data set [2] is 1 to 2 h.
